From patent publication US20200331904A1, “3-AMINO-[1,2,4]-TRIAZOLE DERIVATIVES AND THEIR USE FOR CONTROLLING UNDESIRED PLANT GROWTH” (Bayer CropScience Aktiengesellschaft, priority 2017, published 2020)

What was measured:
Format in all cases: in vivo
[1] = test system: Matricaria inodora; test: Pre-emergence herbicidal efficacy, MATIN
Source text: (§1) C.1 Pre-Emergence Herbicidal Action and Crop Plant Compatibility
(§2) Seeds of monocotyledonous and dicotyledonous weed plants and crop plants are placed in plastic or organic planting pots and covered with soil. The compounds of the invention, formulated in the form of wettable powders (WP) or as emulsion concentrates (EC), are then applied onto the surface of the covering soil as aqueous suspension or emulsion with addition of 0.5% additive at a water application rate of […] (converted). After the treatment, the pots are placed in a greenhouse and kept under good growth conditions for the trial plants. After about 3 weeks, the effect of the preparations is scored visually in comparison with untreated controls as percentages. For example, 100% activity=the plants have died, 0% activity=like control plants.
(§3) ABUTH: Abutilon theophrasti ALOMY: Alopecurus myosuroides AMARE: Amaranthus retroflexus AVEFA: Avena fatua CYPES: Cyperus esculentus ECHCG: Echinochloa crus-galli LOLMU: Lolium multiflorum MATIN: Matricaria inodora PHBPU: Ipomoea purpurea POLCO: Polygonum convolvulus SETVI: Setaria viridis STEME: Stellaria media VERPE: Veronica persica VTOTR: Viola tricolor

[2] = test system: Veronica persica; test: Pre-emergence herbicidal efficacy, VERPE; conditions: Table B2, application rate 320 g/ha, scored visually after about 3 weeks vs untreated controls
Source text: as §1, §2, §3

[3] = test system: Viola tricolor; test: Pre-emergence herbicidal efficacy, VIOTR
Source text: as §1, §2, §3

[4] = test system: Polygonum convolvulus; test: Pre-emergence herbicidal efficacy, POLCO; conditions: Table B2, application rate 320 g/ha, scored visually after about 3 weeks vs untreated controls
Source text: as §1, §2, §3

[5] = test system: Amaranthus retroflexus; test: Pre-emergence herbicidal efficacy, AMARE; conditions: Table B2, application rate 320 g/ha, scored visually after about 3 weeks vs untreated controls
Source text: as §1, §2, §3

[6] = test system: Stellaria media; test: Pre-emergence herbicidal efficacy, STEME
Source text: as §1, §2, §3

[7] = Table B2, application rate 320 g/ha, scored visually after about 3 weeks vs untreated controls
[8] = application rate 320 g/ha, scored visually after about 3 weeks

Row | Compound | Herbicidal efficacy against MATIN [1, 7] [%] | Herbicidal efficacy against VERPE [2] [%] | Herbicidal efficacy against VIOTR [3, 7] [%] | Herbicidal efficacy against POLCO [4] [%] | Herbicidal efficacy against AMARE [5] [%] | Herbicidal efficacy against STEME [6, 7] [%] | Herbicidal efficacy against MATIN [1, 8] [%] | Herbicidal efficacy against VIOTR [3, 8] [%] | Herbicidal efficacy against STEME [6, 8] [%]
1 | Cc1ccc2c(c1)C(Nc1nc3n(n1)CCCS3(=O)=O)CCC2 (stereo not drawn) [Example I-239] | 100 | 100 | 100 | 100 | 100 | 100 |  |  | 
2 | [O-][S+]1CCCn2nc(N[C@@H]3CCCc4ccccc43)nc21 (stereo partly drawn) [Example I-361] | 100 | 100 | 100 | 100 | 100 | 100 |  |  | 
3 | Cc1ccc2c(c1)[C@H](Nc1nc3n(n1)CCCS3(=O)=O)CCO2 [Example I-378] | 100 | 100 | 100 | 100 | 100 | 100 |  |  | 
4 | Cc1ccc2c(c1)C(Nc1nc3n(n1)CCCN3S(C)(=O)=O)CC2 (stereo not drawn) [Example I-301] | 100 | 90 | 100 | 80 | 100 | 100 |  |  | 
5 | Cc1ccc2c(c1)[C@H](Nc1nc3n(n1)CCN(S(=O)(=O)C1CCCC1)C3)CCC2 [Example I-201] | 90 | 100 | 100 | 100 | 100 | 100 |  |  | 
6 | CC1CCc2ccccc2C1Nc1nc2n(n1)CCCC[S+]2[O-] (stereo not drawn) [Example I-373] | 100 | 100 | 100 | 100 | 100 | 100 |  |  | 
7 | CC1CCc2ccccc2C1Nc1nc2n(n1)CCC[S+]2[O-] (stereo not drawn) [Example I-362] | 100 | 100 | 100 | 100 | 100 | 100 |  |  | 
8 | c1ccc2c(c1)CCC[C@H]2Nc1nc2n(n1)CCCS2 [Example I-349] | 100 | 100 | 100 | 100 | 100 | 100 |  |  | 
9 | O=S1(=O)CCCCn2nc(NC3CCCc4ccccc43)nc21 (stereo not drawn) [Example I-253] | 100 | 100 | 100 | 100 | 100 | 100 | 100 | 100 | 100
10 | O=S(=O)(C1CC1)N1CCCn2nc(NC3CCCc4ccccc43)nc21 (stereo not drawn) [Example I-333] |  | 100 | 100 | 100 | 100 | 100 |  |  | 
11 | Cc1ccc2c(c1)C(Nc1nc3n(n1)CCC(=O)N3C(C)C)CCC2 (stereo not drawn) [Example I-316] | 100 | 100 | 100 | 100 |  | 100 | 100 | 100 | 100
12 | CC(=O)N1CCCn2nc(NC3CCc4ccc(C)cc43)nc21 (stereo not drawn) [Example I-320] | 100 | 100 | 100 |  | 90 | 100 |  |  | 
